Measurements taken from patent EP4813989A1, “CRYSTAL, PHARMACEUTICAL COMPOSITION, PREPARATION METHOD THEREFOR, AND USE THEREOF” (TYK Medicines, Inc., priority 2023, dated 2025).

Assays:
Type in all cases: physicochemical
[1] = Dynamic vapor sorption (DVS) hygroscopicity
Procedure: Dynamic vapor sorption (DVS) was used to investigate hygroscopicities of an active pharmaceutical ingredient in different crystal forms.
Determination method: • instrument: dynamic vapor sorption analyzer; temperature: 25°C; protective gas and flow rate: N2, 200 mL/min; • dm/dt: 0.002%/min; RH range: 0%RH-100%RH; cycle: 1 full cycle.

[2] = Accelerated test, related substances by HPLC; settings: 40°C±2°C, 75%RH±5%RH; for Impurity content RRT0.55 / Impurity content RRT0.66 / Impurity content RRT0.71 / Impurity content RRT0.94 / Impurity content RRT1.02 / Impurity content RRT1.06 / Impurity content RRT1.08 / Impurity content RRT1.15 / Total impurities: open
Procedure: An investigation method for the accelerated test can be seen in Table 14 below.
Change results of related substances in each crystal form under the accelerated condition (40°C±2°C, 75%RH±5%RH) can be seen in Table 18.
HPLC detection results of related substances under the accelerated condition can be seen as follows: Table 18

[3] = High-humidity test, related substances by HPLC; settings: 90%RH±5%RH; for Impurity content RRT0.55 / Impurity content RRT0.66 / Impurity content RRT0.71 / Impurity content RRT0.94 / Impurity content RRT1.02 / Impurity content RRT1.06 / Impurity content RRT1.08 / Impurity content RRT1.15 / Total impurities: open
Description: An investigation method for the high-humidity test can be seen in Table 12 below.
Results of related substances in each crystal form under the high-humidity condition (90%RH±5%RH) can be seen in Table 16.
HPLC detection results of related substances under the high-humidity condition can be seen as follows: Table 16

[4] = Flowability test (angle of repose)
Procedure: A flowability determination method was as follows: an angle of repose was determined by using a device composed of 2 to 3 funnels connected in series in a staggered manner, and drug powder was slowly and uniformly passed through the funnels onto a stationary base with a diameter d, so as to form a symmetric powder pile with a single layer of powder at the bottom. During the formation of the powder pile, a height of the funnels was maintained within 2-4 cm from a top of the powder pile, a height h of the cone was determined, and the angle of repose was calculated as tanθ=h/(d/2).

[5] = Light exposure test, related substances by HPLC
Description: An investigation method for the light exposure test can be seen in Table 13 below.
Results of related substances in each crystal form under the light exposure condition (4500lx±500lx) can be seen in Table 17.
HPLC detection results of related substances under the light exposure condition can be seen as follows: Table 17

C[C@@H](Nc1ccn2ncc(C3=NOC(C)(C)N3)c2n1)c1cc(F)cc(F)c1F [crystal form E]
Hygroscopicity (conclusion) [1]: had hygroscopicity
DVS weight loss ([1]; humidity 20% or less): up to 3%
DVS weight loss ([1]; humidity increased from 0% to 30%): approximately 2%
DVS weight gain ([1]; humidity increased from 90% to 100%): approximately 4%
DVS weight loss ([1]; humidity reduced from 100% to 90%): approximately 2%
Increase of impurity RRT1.08 content ([2]; 32 days): 0.03%
Impurity content RRT0.55 ([2]; 0 day): 0.04%
Impurity content RRT0.66 ([2]; 0 day): 0.21%
Impurity content RRT0.71 ([2]; 0 day): 0.14%
Impurity content RRT0.94 ([2]; 0 day): 0.03%
Impurity content RRT1.02 ([2]; 0 day): 0.21%
Impurity content RRT1.06 ([2]; 0 day): 0.07%
Impurity content RRT1.08 ([2]; 0 day): 0.17%
Impurity content RRT1.15 ([2]; 0 day): 0.03%
Total impurities ([2]; 0 day): 0.89%
Impurity content RRT0.55 ([2]; 5 days): 0.04%
Impurity content RRT0.66 ([2]; 5 days): 0.21%
Impurity content RRT0.71 ([2]; 5 days): 0.15%
Impurity content RRT0.94 ([2]; 5 days): 0.03%
Impurity content RRT1.02 ([2]; 5 days): 0.21%
Impurity content RRT1.06 ([2]; 5 days): 0.05%
Impurity content RRT1.08 ([2]; 5 days): 0.18%
Impurity content RRT1.15 ([2]; 5 days): 0.03%
Total impurities ([2]; 5 days): 0.89%
Impurity content RRT0.55 ([2]; 11 days): 0.04%
Impurity content RRT0.66 ([2]; 11 days): 0.21%
Impurity content RRT0.71 ([2]; 11 days): 0.15%
Impurity content RRT0.94 ([2]; 11 days): 0.02%
Impurity content RRT1.02 ([2]; 11 days): 0.21%
Impurity content RRT1.06 ([2]; 11 days): 0.05%
Impurity content RRT1.08 ([2]; 11 days): 0.21%
Impurity content RRT1.15 ([2]; 11 days): 0.03%
Total impurities ([2]; 11 days): 0.94%
Impurity content RRT0.55 ([2]; 32 days): 0.04%
Impurity content RRT0.66 ([2]; 32 days): 0.21%
Impurity content RRT0.71 ([2]; 32 days): 0.16%
Impurity content RRT0.94 ([2]; 32 days): 0.04%
Impurity content RRT1.02 ([2]; 32 days): 0.20%
Impurity content RRT1.06 ([2]; 32 days): 0.04%
Impurity content RRT1.08 ([2]; 32 days): 0.20%
Impurity content RRT1.15 ([2]; 32 days): 0.05%
Total impurities ([2]; 32 days): 0.95%
Increase of impurity RRT1.02 content ([3]; 32 days): no essential changes
Increase of impurity RRT1.08 content ([3]; 32 days): 0.04%
Increase of total impurities ([3]; 32 days): 0.05%
Impurity content RRT0.55 ([3]; 0 day): 0.04%
Impurity content RRT0.66 ([3]; 0 day): 0.21%
Impurity content RRT0.71 ([3]; 0 day): 0.14%
Impurity content RRT0.94 ([3]; 0 day): 0.03%
Impurity content RRT1.02 ([3]; 0 day): 0.21%
Impurity content RRT1.06 ([3]; 0 day): 0.07%
Impurity content RRT1.08 ([3]; 0 day): 0.17%
Impurity content RRT1.15 ([3]; 0 day): 0.03%
Total impurities ([3]; 0 day): 0.89%
Impurity content RRT0.55 ([3]; 5 days): 0.03%
Impurity content RRT0.66 ([3]; 5 days): 0.21%
Impurity content RRT0.71 ([3]; 5 days): 0.15%
Impurity content RRT0.94 ([3]; 5 days): 0.03%
Impurity content RRT1.02 ([3]; 5 days): 0.21%
Impurity content RRT1.06 ([3]; 5 days): 0.05%
Impurity content RRT1.08 ([3]; 5 days): 0.18%
Impurity content RRT1.15 ([3]; 5 days): 0.03%
Total impurities ([3]; 5 days): 0.89%
Impurity content RRT0.55 ([3]; 11 days): 0.04%
Impurity content RRT0.66 ([3]; 11 days): 0.21%
Impurity content RRT0.71 ([3]; 11 days): 0.14%
Impurity content RRT0.94 ([3]; 11 days): 0.02%
Impurity content RRT1.02 ([3]; 11 days): 0.20%
Impurity content RRT1.06 ([3]; 11 days): 0.05%
Impurity content RRT1.08 ([3]; 11 days): 0.21%
Impurity content RRT1.15 ([3]; 11 days): 0.03%
Total impurities ([3]; 11 days): 0.89%
Impurity content RRT0.55 ([3]; 32 days): 0.04%
Impurity content RRT0.66 ([3]; 32 days): 0.22%
Impurity content RRT0.71 ([3]; 32 days): 0.15%
Impurity content RRT0.94 ([3]; 32 days): 0.05%
Impurity content RRT1.02 ([3]; 32 days): 0.19%
Impurity content RRT1.06 ([3]; 32 days): 0.04%
Impurity content RRT1.08 ([3]; 32 days): 0.21%
Impurity content RRT1.15 ([3]; 32 days): 0.04%
Total impurities ([3]; 32 days): 0.94%
angle of repose [4]: 37.9 °
Increase of impurity RRT0.66 content ([5]; 4500 lx±500 lx, 32 days): 0.04%
Increase of impurity RRT0.71 content ([5]; 4500 lx±500 lx, 32 days): not increased
Increase of impurity RRT1.02 content ([5]; 4500 lx±500 lx, 32 days): not increased
Increase of impurity RRT1.08 content ([5]; 4500 lx±500 lx, 32 days): 0.08%
Increase of total impurities ([5]; 4500 lx±500 lx, 32 days): 0.13%
Impurity content RRT0.55 ([5]; 4500lx±500lx, open, 0 day): 0.04%
Impurity content RRT0.66 ([5]; 4500lx±500lx, open, 0 day): 0.21%
Impurity content RRT0.71 ([5]; 4500lx±500lx, open, 0 day): 0.14%
Impurity content RRT0.94 ([5]; 4500lx±500lx, open, 0 day): 0.03%
Impurity content RRT1.02 ([5]; 4500lx±500lx, open, 0 day): 0.21%
Impurity content RRT1.06 ([5]; 4500lx±500lx, open, 0 day): 0.07%
Impurity content RRT1.08 ([5]; 4500lx±500lx, open, 0 day): 0.17%
Impurity content RRT1.15 ([5]; 4500lx±500lx, open, 0 day): 0.03%
Total impurities ([5]; 4500lx±500lx, open, 0 day): 0.89%
Impurity content RRT0.55 ([5]; 4500lx±500lx, open, 5 days): 0.03%
Impurity content RRT0.66 ([5]; 4500lx±500lx, open, 5 days): 0.22%
Impurity content RRT0.71 ([5]; 4500lx±500lx, open, 5 days): 0.14%
Impurity content RRT0.94 ([5]; 4500lx±500lx, open, 5 days): 0.02%
Impurity content RRT1.02 ([5]; 4500lx±500lx, open, 5 days): 0.22%
Impurity content RRT1.06 ([5]; 4500lx±500lx, open, 5 days): 0.05%
Impurity content RRT1.08 ([5]; 4500lx±500lx, open, 5 days): 0.20%
Impurity content RRT1.15 ([5]; 4500lx±500lx, open, 5 days): 0.04%
Total impurities ([5]; 4500lx±500lx, open, 5 days): 0.92%
Impurity content RRT0.55 ([5]; 4500lx±500lx, open, 11 days): 0.04%
Impurity content RRT0.66 ([5]; 4500lx±500lx, open, 11 days): 0.22%
Impurity content RRT0.71 ([5]; 4500lx±500lx, open, 11 days): 0.14%
Impurity content RRT0.92 ([5]; 4500lx±500lx, open, 11 days): 0.03%
Impurity content RRT0.94 ([5]; 4500lx±500lx, open, 11 days): 0.03%
Impurity content RRT1.02 ([5]; 4500lx±500lx, open, 11 days): 0.20%
Impurity content RRT1.06 ([5]; 4500lx±500lx, open, 11 days): 0.04%
Impurity content RRT1.08 ([5]; 4500lx±500lx, open, 11 days): 0.24%
Impurity content RRT1.15 ([5]; 4500lx±500lx, open, 11 days): 0.03%
Total impurities ([5]; 4500lx±500lx, open, 11 days): 0.98%
Impurity content RRT0.55 ([5]; 4500lx±500lx, open, 32 days): 0.03%
Impurity content RRT0.66 ([5]; 4500lx±500lx, open, 32 days): 0.25%
Impurity content RRT0.71 ([5]; 4500lx±500lx, open, 32 days): 0.13%
Impurity content RRT0.94 ([5]; 4500lx±500lx, open, 32 days): 0.08%
Impurity content RRT1.02 ([5]; 4500lx±500lx, open, 32 days): 0.20%
Impurity content RRT1.06 ([5]; 4500lx±500lx, open, 32 days): 0.04%
Impurity content RRT1.08 ([5]; 4500lx±500lx, open, 32 days): 0.25%
Impurity content RRT1.15 ([5]; 4500lx±500lx, open, 32 days): 0.04%
Total impurities ([5]; 4500lx±500lx, open, 32 days): 1.02%
